Source: US11773078B2, “Furin inhibitors” (Glaxosmithkline Intellectual Property Development Limited, priority 2018, dated 2023)
Counter-ions that a name gives are not always drawn.

Assays:
[1] = target: T1, Furin (108-574-Tev-Flag-His) enzyme (Homo sapiens, UniProt P09958); assay: Furin enzyme assay; type: biochemical
T1 construct: Furin (108-574-Tev-Flag-His) enzyme was expressed and purified from CHO cells; TEV cleavage site (C); FLAG (C); His (C); made in house; host or cells: CHO cells
Method in brief: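 Compounds ran as 11-point threefold dilutions (0.00017–10 μM final) against 40 pM furin, purified from CHO cells, for 2 h at room temperature. Buffer: 100 mM HEPES pH7.5 with 1 mM CaCl2 and 0.005% Triton X-100. Envision readout. Four-parameter curve gives pXC50.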

[2] = target: T2, furin (endogenous protease) in U20S cells (Homo sapiens, UniProt P09958); assay: Furin cell-based assay (image-based, Golgi-targeted GFP with BMP10 furin/PCSK cleavage site); conditions: 24-hour incubation, read-out: furin golgi cell pXC50 (converted);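 further: Read-out is mean GFP fluorescence of Golgi puncta per cell by high-content imaging, retained when furin inhibited, over an eleven-point 0.00017–10 µM series, four-parameter fit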
T2 construct: the endogenous protease cleaves GFP; endogenous in cells; host or cells: U2OS cells transduced with a BacMam reporter
T2 sequence (P09958 108-794): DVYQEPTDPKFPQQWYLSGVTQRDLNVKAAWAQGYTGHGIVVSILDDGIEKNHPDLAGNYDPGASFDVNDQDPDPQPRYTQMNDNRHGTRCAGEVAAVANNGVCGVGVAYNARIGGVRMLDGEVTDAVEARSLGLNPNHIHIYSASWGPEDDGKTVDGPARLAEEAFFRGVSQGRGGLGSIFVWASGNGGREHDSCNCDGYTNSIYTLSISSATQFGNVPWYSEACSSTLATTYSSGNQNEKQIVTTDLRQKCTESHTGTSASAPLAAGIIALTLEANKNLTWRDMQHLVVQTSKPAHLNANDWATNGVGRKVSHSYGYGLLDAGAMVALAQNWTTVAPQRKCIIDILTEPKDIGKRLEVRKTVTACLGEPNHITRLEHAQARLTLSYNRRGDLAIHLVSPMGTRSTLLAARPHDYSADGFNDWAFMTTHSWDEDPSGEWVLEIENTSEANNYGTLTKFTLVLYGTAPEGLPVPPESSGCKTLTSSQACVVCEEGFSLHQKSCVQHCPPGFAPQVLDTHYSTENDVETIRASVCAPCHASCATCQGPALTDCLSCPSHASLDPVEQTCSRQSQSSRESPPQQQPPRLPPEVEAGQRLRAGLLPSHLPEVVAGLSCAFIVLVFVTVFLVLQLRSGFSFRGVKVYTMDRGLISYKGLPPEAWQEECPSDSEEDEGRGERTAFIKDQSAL

T1 sequence (P09958 108-574): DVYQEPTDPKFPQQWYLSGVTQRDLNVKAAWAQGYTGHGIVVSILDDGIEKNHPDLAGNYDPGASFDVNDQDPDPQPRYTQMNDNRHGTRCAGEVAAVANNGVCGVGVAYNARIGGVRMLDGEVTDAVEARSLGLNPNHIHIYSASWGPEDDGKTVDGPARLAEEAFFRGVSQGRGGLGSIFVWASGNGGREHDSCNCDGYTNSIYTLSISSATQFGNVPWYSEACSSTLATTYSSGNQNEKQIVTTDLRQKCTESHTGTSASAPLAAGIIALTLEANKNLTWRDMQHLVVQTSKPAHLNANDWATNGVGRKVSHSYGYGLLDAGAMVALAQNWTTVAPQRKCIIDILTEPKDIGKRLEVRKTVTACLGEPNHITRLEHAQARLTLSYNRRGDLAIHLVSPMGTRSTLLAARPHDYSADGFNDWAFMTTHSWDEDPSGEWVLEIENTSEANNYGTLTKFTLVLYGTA

Row | SMILES | furin enzyme pIC50 [1] | EC50 [2] [nM] | IC50 ([1]; read-out: furin enzyme pIC50 (converted)) [nM]
1 | CNC(=O)NCC1CCN(Cc2cc(Oc3cnc(N4CCN(CCCS(N)(=O)=O)CC4)nc3)nc(-c3cc(Cl)cc(Cl)c3)c2)CC1 [Example 48, 3-((4-(5-((6-(3,5-Dichlorophenyl)-4-((4-((3-methylureidolmethyl)piperidin-1-yl)methyl)pyridin-2-yl)oxy)pyrimidin-2-yl)piperazin-1-yl)propane-1-sulfonamide. 4 hydrochloride] | 9.4 | 2.51 | 
2 | COC(=O)NCC1CCN(Cc2cc(Oc3cnc(N4CCNCC4)nc3)nc(-c3cc(Cl)cc(Cl)c3)c2)CC1 [Example 49, Methyl((1-((2-(3,5-dichlorophenyl)-6-((2-(piperazin-1-yl)pyrimidin-5-yl)oxy)pyridin-4-yl)methyl)piperidin-4-yl)methyl)carbamate, 4 hydrochloride] | 9.1 | 20 | 
3 | CNCc1cc(Oc2ccc(N3CCN(CCC(=O)O)CC3)nc2)nc(-c2cc(Cl)cc(Cl)c2)c1 [Example 50, 3-(4-(5-((6-(3,5-Dichlorophenyl)-4-((methylamino)methyl)pyridin-2-yl)oxy)pyridin-2-yl)piperazin-1-yl)propanoic acid, 4 hydrochloride] | 8.1 | 126 | 
4 | COC(=O)NCC1(F)CCN(Cc2cc(Oc3cnc(N4CCN(CCC(=O)O)CC4)nc3)nc(-c3cc(Cl)cc(Cl)c3)c2)CC1 [Example 51, 3-((4-(5-((6-(3,5-Dichlorophenyl)-4-((4-fluoro-4-(((methoxycarbonyl)amino)methyl)piperidin-1-yl)methyl)pyridin-2-yl)oxy)pyrimidin-2-yl)piperazin-1-yl)propanoic acid, 4 hydrochloride] | 8.2 | 158 | 
5 | CN1CCN(c2ncc(Oc3cc(CN4CCC(CCO)CC4)cc(-c4cc(Cl)cc(Cl)c4)n3)cn2)CC1 [Example 52, 2-(1-((2-(3,5-Dichlorophenyl)-6-((2-(4-methylpiperazin-1-yl)pyrimidin-5-yl)oxy)pyridin-4-yl)methyl)piperidin-4-yl)ethanol] | 9.8 | 1.26 | 
6 | CN1CCN(c2ncc(Oc3cc(CN4CCC(OCC(=O)O)CC4)cc(-c4cc(Cl)cc(Cl)c4)n3)cn2)CC1 [Example 53, 2-((1-((2-(3,5-Dichlorophenyl)-6-((2-(4-methylpiperazin-1-yl)pyrimidin-5-yl)oxy)pyridin-4-yl)methyl)piperidin-4-yl)oxy)acetic acid, 4 hydrochloride] | 8.7 | 15.8 | 
7 | NC(=O)OCCN1CCN(Cc2cc(Oc3cnc(N4CCN(CCC(=O)O)CC4)nc3)nc(-c3cc(Cl)cc(Cl)c3)c2)CC1 [Example 54, 3-(4-(5-((4-((4-(2-(Carbamoyloxy)ethyl)piperazin-1-yl)methyl)-6-(3,5-dichlorophenyl)pyridin-2-yl)oxy)pyrimidin-2-yl)piperazin-1-yl)propanoic acid, 5 hydrochloride] | 8.2 | 158 | 
8 | NC(=O)OCCN1CCN(Cc2cc(Oc3ccc(N4CCN(CCC(=O)O)CC4)nc3)nc(-c3cc(Cl)cc(Cl)c3)c2)CC1 [Example 55, 3-(4-(5-((4-((4-(2-(carbamoyloxy)ethyl)piperazin-1-yl)methyl)-6-(3,5-dichlorophenyl)pyridin-2-yl)oxy)pyridin-2-yl)piperazin-1-yl)propanoic acid] | 8.2 | 251 | 
9 | COC(=O)NCC1CCN(Cc2cc(Oc3cnc(N4CC5CCC(C4)N5CCC(=O)O)nc3)nc(-c3cc(Cl)cc(Cl)c3)c2)CC1 [Example 56, 3-(3-(5-((6-(3,5-dichlorophenyl)-4-((4-(((methoxycarbonyl)amino)methyl)piperidin-1-yl)methyl)pyridin-2-yl)oxy)pyrimidin-2-yl)-3,8-diazabicyclo[3.2.1]octan-8-yl)propanoic acid] |  | 5.01 | 0.0316
